Measurements published in patent publication US20250134871A1, “UPR MODULATORS TO TREAT HEARING LOSS” (JACARANDA BIOSCIENCES, INC., priority 2021, published 2025).

tested on: CHOP; test: ER stress induction in HEK cells treated with compounds (CHOP mRNA, qPCR); format: cell-based; conditions: HEK 293 cells, 0.5 μM thapsigargin and 0.1 to 5.0 μM of each drug for 2 hours; CHOP mRNA by qPCR, ΔΔCt vs GAPDH
Method: HEK 293 cells were cultured in DMEM with 10% FBS, Pen/Strep in 5% CO2, at 37° C. in incubator. Cells were split and seeded at approximately 2×10^4 cells in each well of 96-well plate one day before treatment. Cells were grown in good shape and passaged one or two times before testing.
Cells were treated with 0.5 μM thapsigargin and 0.1 to 5.0 μM of each drug for 2 hours. The cells were then harvested, pelleted and treated to ready for testing mRNA abundance for specific UPR genes from cells in the PCR reaction using the TaqMan™ Gene Expression Cells-to-CT™ Kit (Thermo Fisher). Prescreened primers were ordered from Bio-Rad. The gene tested is CHOP, (the C/EBP Homologous Protein). These markers were compared against GAPDH. The qPCR system we used was CFX 384 Real time (Bio-Rad). Samples were measured in triplicates and relative quantification, by the ΔΔCt-method, using GAPDH as reference. The biological results are summarized in Table 1 where A represents a greater than 50% reduction in CHOP signal in compound-treated versus untreated cells, B represents a 20% to 50% reduction in CHOP signal, and C represents a 1% to 20% reduction in CHOP signal.

SMILES	CHOP reduction
O=C(COc1ccccc1)Nc1ccc(NC(=O)COc2ccccc2)c(Cl)c1 [Compound C5, 2-Phenoxy-N-[2-chloro-4-(2-phenoxyacetylamino)phenyl]acetamide]	B (B represents a 20% to 50% reduction in CHOP signal)
CC(C)(C)c1ccc(OCC(=O)Nc2ccc(NC(=O)COc3ccc(C(C)(C)C)cc3)cc2)cc1 [Compound A3, N,N′-Benzene-1,4-diylbis [2-(4-tert-butylphenoxy)acetamide]]	C (C represents a 1% to 20% reduction in CHOP signal)
CC(C)(C)c1ccc(OCC(=O)Nc2ccc(NC(=O)COc3ccc(C(C)(C)C)cc3)c(Cl)c2)cc1 [Compound C8, N,N′-2-Chlorobenzene-1,4-diylbis[2-(4-tert-butylphenoxy)acetamide]]	B (B represents a 20% to 50% reduction in CHOP signal)
CC(C)(C)c1ccc(OCC(=O)Nc2cnc(NC(=O)COc3ccc(C(C)(C)C)cc3)c(Br)c2)cc1 [Compound B7, 2-(4-tert-Butylphenoxy)-N-[5-bromo-6-[[2-(4-tert-butylphenoxy)acetyl]amino]pyridin-3-yl]acetamide]	B (B represents a 20% to 50% reduction in CHOP signal)
O=C(COc1ccc(Cl)cc1)Nc1cnc(NC(=O)COc2ccc(Cl)cc2)c(Br)c1 [Compound B5, 2-(4-Chlorophenoxy)-N-[5-bromo-6-[[2-(4-chlorophenoxy)acetyl]amino]pyridin-3-yl]acetamide]	C (C represents a 1% to 20% reduction in CHOP signal)
O=C(COc1ccc(Cl)cc1)Nc1ccc(NC(=O)COc2ccc(Cl)cc2)nc1 [Compound B2, 2-(4-Chlorophenoxy)-N-[6-[[2-(4-chlorophenoxy)acetyl]amino]pyridin-3-yl]acetamide]	A (A represents a greater than 50% reduction in CHOP signal in compound-treated versus untreated cells)
O=C(COc1ccccc1)Nc1ccc(NC(=O)COc2ccccc2)cc1 [Compound A1, 2-Phenoxy-N-[4-(2-phenoxyacetylamino)phenyl]acetamide]	A (A represents a greater than 50% reduction in CHOP signal in compound-treated versus untreated cells)
Cc1ccc(OCC(=O)Nc2ccc(NC(=O)COc3ccc(C)cc3)nc2)cc1 [Compound B3, 2-(4-Methylphenoxy)-N-[6-[[2-(4-methylphenoxy)acetyl]amino]pyridin-3-yl]acetamide]	B (B represents a 20% to 50% reduction in CHOP signal)
Cc1ccc(OCC(=O)Nc2cnc(NC(=O)COc3ccc(C)cc3)c(Br)c2)cc1 [Compound B6, 2-(4-Methylphenoxy)-N-[5-bromo-6-[[2-(4-methylphenoxy)acetyl]amino]pyridin-3-yl]acetamide]	C (C represents a 1% to 20% reduction in CHOP signal)
O=C(COc1ccc(Cl)cc1)Nc1ccc(NC(=O)COc2ccc(Cl)cc2)c(Cl)c1 [Compound C6, 2-(4-Chlorophenoxy)-N-[2-chloro-4-[[2-(4-chlorophenoxy)acetyl]amino]phenyl]acetamide]	A (A represents a greater than 50% reduction in CHOP signal in compound-treated versus untreated cells)
O=C(COc1ccc(Cl)cc1)Nc1ccc(NC(=O)COc2ccc(Cl)cc2)cc1 [Compound A2, 2-(4-Chlorophenoxy)-N-[4-[[2-(4-chlorophenoxy)acetyl]amino]phenyl]acetamide]	B (B represents a 20% to 50% reduction in CHOP signal)
Cc1cc(NC(=O)COc2ccc(Cl)cc2)ccc1NC(=O)COc1ccc(Cl)cc1 [Compound C2, 2-(4-Chlorophenoxy)-N-[2-methyl-4-[[2-(4-chlorophenoxy)acetyl]amino]phenyl]acetamide]	A (A represents a greater than 50% reduction in CHOP signal in compound-treated versus untreated cells)
Cc1ccc(OCC(=O)Nc2ccc(NC(=O)COc3ccc(C)cc3)c(Cl)c2)cc1 [Compound C7, N,N′-2-Chlorobenzene-1,4-diylbis[2-(4-methylphenoxy)acetamide]]	C (C represents a 1% to 20% reduction in CHOP signal)
O=C(COc1ccccc1)Nc1cnc(NC(=O)COc2ccccc2)c(Br)c1 [Compound B4, 2-Phenoxy-N-[5-bromo-6-[[2-phenoxyacetyl]amino]pyridin-3-yl]acetamide]	C (C represents a 1% to 20% reduction in CHOP signal)
Cc1cc(NC(=O)COc2ccccc2)ccc1NC(=O)COc1ccccc1 [Compound C1, 2-Phenoxy-N-[2-methyl-4-(2-phenoxyacetylamino)phenyl]acetamide]	B (B represents a 20% to 50% reduction in CHOP signal)
O=C(COc1ccccc1)Nc1ccc(NC(=O)COc2ccccc2)nc1 [Compound B1, 2-Phenoxy-N-[6-[[2-phenoxyacetyl]amino]pyridin-3-yl]acetamide]	C (C represents a 1% to 20% reduction in CHOP signal)
Cc1ccc(OCC(=O)Nc2ccc(NC(=O)COc3ccc(C)cc3)cc2)cc1 [Compound A4, N,N′-Benzene-1,4-diylbis [2-(4-methylphenoxy)acetamide]]	C (C represents a 1% to 20% reduction in CHOP signal)

tested on: hearing loss from noise exposure; test: not given; conditions: after a transient threshold shift; cited from earlier work

SMILES	cochlear synaptopathy after a transient threshold shift
O=C(COc1ccc(Cl)cc1)NC1CCC(NC(=O)COc2ccc(Cl)cc2)CC1 (stereo not shown) [ISRIB]	can prevent cochlear synatopathy after a transient threshold shift

same assay, conditions: mice, noise exposure; cited from earlier work

SMILES	hearing loss from noise exposure (permanent threshold shift)
O=C(COc1ccc(Cl)cc1)NC1CCC(NC(=O)COc2ccc(Cl)cc2)CC1 (stereo not shown) [ISRIB]	can prevent hearing loss in mice from noise exposure
